According to ChEMBL document CHEMBL4673393, “Synthesis and Metabolism of BTN3A1 Ligands: Studies on Modifications of the Allylic Alcohol” (ACS Med Chem Lett, 2021):
The source made the active and inactive calls. The calls are words filed in the database; no cut-off is given here.

Assays:
[1] = target: Butyrophilin subfamily 3 member A1 (Homo sapiens) (UniProt O00481); experiment: Binding affinity to BTN3A1 in human K562 cells assessed as induction of Vgamma9/Vdelta2 T cell-mediated interferon gamma release preincubated for 4 hrs followed by compound washout and subsequent Vgamma9Vdelta2 T cell addition measured after 20 hrs by ELISA; type: cell-based
[2] = target: Butyrophilin subfamily 3 member A1 (Homo sapiens) (UniProt O00481); experiment: Binding affinity to BTN3A1 in human PBMC-derived Vgamma9/Vdelta2 T cells assessed as induction of Vgamma9Vdelta2 T cells proliferation incubated for 3 days by gamma delta TCR/PE-CD3+ antibody staining based FACS analysis relative to HMBP analog; details: Vgamma9Vdelta2 T cell, time 3.0 day
[3] = Prodrug conversion in human K562 cells assessed as conversion of free acid alcohol at 100 uM measured after 1 hr by LC-MS analysis; type: ADME, cell-based; details: k562, 1 h
[4] = Prodrug conversion in human K562 cells assessed as conversion of phosphonic monoacid in allylic aldehyde form at 100 uM measured after 1 hr by LC-MS analysis; type: ADME, cell-based; details: k562, 1 h
[5] = Prodrug conversion in human K562 cells assessed as conversion of monoacid in allylic aldehyde form at 100 uM measured after 1 hr by LC-MS analysis; type: ADME, cell-based; details: k562, 1 h
[6] = tested on: K562; experiment: Toxicity in human K562 cells assessed as reduction in cell viability at 100 uM after 72 hrs by Qb reagent based fluorescence assay; details: k562, 72 h
[7] = Prodrug conversion in human K562 cells assessed as conversion of phosphonic monoacid in allylic alcohol form at 100 uM measured after 1 hr by LC-MS analysis; type: ADME, cell-based; details: k562, 1 h
[8] = Prodrug conversion in human K562 cells assessed as conversion of monoacid in allylic alcohol form at 100 uM measured after 1 hr by LC-MS analysis; type: ADME, cell-based; details: k562, 1 h
[9] = Prodrug conversion in human K562 cells assessed as glutathione conjugation at 100 uM measured after 1 hr by LC-MS analysis; type: ADME, cell-based; details: k562, 1 h
[10] = Prodrug conversion in human K562 cells assessed as dehydration by measuring DMAP monoacid formation at 100 uM measured after 1 hr by LC-MS analysis; type: ADME, cell-based; details: k562, 1 h

Chain of Butyrophilin subfamily 3 member A1 (Homo sapiens) (O00481 30-513 limits assumed): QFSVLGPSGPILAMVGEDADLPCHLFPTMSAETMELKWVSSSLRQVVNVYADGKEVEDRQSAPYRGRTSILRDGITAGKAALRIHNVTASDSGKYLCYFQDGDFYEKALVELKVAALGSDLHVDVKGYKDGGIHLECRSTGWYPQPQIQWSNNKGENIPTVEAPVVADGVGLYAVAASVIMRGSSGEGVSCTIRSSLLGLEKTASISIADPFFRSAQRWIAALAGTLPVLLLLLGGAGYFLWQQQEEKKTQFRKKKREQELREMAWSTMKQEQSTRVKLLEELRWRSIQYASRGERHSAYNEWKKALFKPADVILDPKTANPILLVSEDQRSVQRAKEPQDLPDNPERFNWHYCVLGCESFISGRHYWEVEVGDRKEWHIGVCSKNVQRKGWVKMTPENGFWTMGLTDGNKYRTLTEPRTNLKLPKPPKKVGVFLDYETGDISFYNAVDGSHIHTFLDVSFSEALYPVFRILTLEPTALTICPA

| SMILES | fold change (FC) [2] | Drug metabolism [4] | Drug metabolism [5] | Activity [6] | other results |
| --- | --- | --- | --- | --- | --- |
| C/C(C=O)=C\CCP(=O)(OCOC(=O)C(C)(C)C)Oc1ccc2ccc(=O)oc2c1 (stereo unspecified) | 2 |  |  |  | Activity [1]: Active |
| C/C(C=O)=C\CCP(=O)(OCOC(=O)C(C)(C)C)Oc1ccc2ccccc2c1 (stereo unspecified) | 2 | Metabolite_Detected | Metabolite_Detected | Toxic | Drug metabolism [3]: Metabolite_Detected; Activity [1]: Active |
| C/C(C=O)=C\CCP(=O)(NCC(=O)OC(C)C)Oc1ccccc1 (stereo unspecified) | 45 |  |  |  |  |
| CCOC(=O)CNP(=O)(CC/C=C(\C)C=O)Oc1ccccc1 (stereo unspecified) | 56 |  | Metabolite_Detected |  |  |
| C/C(=C\CCP(=O)(OCOC(=O)C(C)(C)C)OCOC(=O)C(C)(C)C)CO |  | Metabolite_Notdetected | Metabolite_Notdetected |  | Drug metabolism [7]: Metabolite_Detected; Drug metabolism [8]: Metabolite_Detected |
| C/C(C=O)=C\CCP(=O)(OCOC(=O)C(C)(C)C)OCOC(=O)C(C)(C)C | 9 | Metabolite_Detected | Metabolite_Detected | Toxic | Drug metabolism [3]: Metabolite_Detected; Drug metabolism [9]: Metabolite_Detected; Drug metabolism [10]: Metabolite_Detected |
| COC(=O)CNP(=O)(CC/C=C(\C)C=O)Oc1ccccc1 (stereo unspecified) | 31 |  |  | Toxic |  |
| CCOC(=O)CNP(=O)(CC/C=C(C)/C=N/O)Oc1ccccc1 (stereo unspecified) | > 2100 |  | Metabolite_Detected |  |  |
